The record followed here is patent US8012949B2, “Bisphosphonate compounds and methods with enhanced potency for multiple targets including FPPS, GGPPS, and DPPS” (The Board of Trustees of the University of Illinois, priority 2004, dated 2011).

Like-named read-outs stand apart in the source and are kept apart here.

Experiment [1] addresses T1, human FPPS (Homo sapiens, UniProt P14324).
T1 construct: made in house
T1 sequence (P14324 1-419): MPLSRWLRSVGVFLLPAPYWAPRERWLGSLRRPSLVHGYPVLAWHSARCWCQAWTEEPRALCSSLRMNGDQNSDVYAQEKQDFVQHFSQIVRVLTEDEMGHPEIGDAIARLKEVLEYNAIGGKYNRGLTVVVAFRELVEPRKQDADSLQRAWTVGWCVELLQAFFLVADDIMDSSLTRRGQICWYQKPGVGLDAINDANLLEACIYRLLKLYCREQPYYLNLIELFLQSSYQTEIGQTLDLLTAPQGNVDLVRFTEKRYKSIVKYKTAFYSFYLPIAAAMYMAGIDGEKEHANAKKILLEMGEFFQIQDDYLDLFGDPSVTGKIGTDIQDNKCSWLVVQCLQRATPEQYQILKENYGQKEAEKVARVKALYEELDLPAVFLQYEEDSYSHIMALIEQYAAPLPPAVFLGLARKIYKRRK
Put plainly: human FPPS enzyme inhibition. It counts as biochemical. The source says:
To test our polypharmaceutical hypothesis, we expressed three enzymes: human FPPS, GGPPS and DPPS, and tested each for their inhibition by a series of bisphosphonates.

Experiment [2] has as its system NCI-H460 (lung large cell). Put plainly: NCI-H460 cell growth inhibition (MTT). It counts as cell-based, human. The settings on record: Homo sapiens, NCI-H460.

Turning to `CCCCCCCCCCOc1cccc(CC(O)(P(=O)(O)O)P(=O)(O)O)c1` [BPH-754], the “effect on FPPS” value in experiment [1] is “essentially no effect”. In addition, the Ki in experiment [1] (Table 1, experimental, read-out: FPPS pKi (converted)) was 5.01 µM. Besides, the IC50 in experiment [2] (Table 1, experimental, read-out: NCI-H460 pIC50 (converted)) was 20 µM; in experiment [2] (read-out: IC50, inhibition of human lung cancer NCIH460), 0.672 µM.
